We go through 18 molecules from patent publication US12344610B2, “APOL1 inhibitors and methods of use” (Maze Therapeutics, Inc., priority 2022, dated 2025).

What all share (assay type): cell-based
The subject of assay [1] is HEK293 cells overexpressing APOL1 G2. Description: APOL1 G2 HEK293 cell rescue assay (reversal of cell death caused by overexpression of APOL1). The settings on record: Homo sapiens, HEK293, HEK293 overexpressing APOL1 G2; geometric mean of at least 2 assay runs; † = single assay run. In a few lines: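 EC50 is the half-maximal effective concentration for reversing cell death driven by APOL1 G2 overexpression in HEK293 cells. Reported as geometric mean of at least 2 runs on separate days, each run averaging duplicate wells per plate; some values from a single run.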

Assay [2] has as its system HEK293 clonal cell line overexpressing APOL1 G1. Description: APOL1 G1 HEK293 cell rescue assay (Example B3). The settings on record: Homo sapiens, HEK293, HEK293 clonal line overexpressing APOL1 G1; geometric mean of at least 2 runs; † = single run; ¥ = concentration at 50% rescue estimated (no sigmoidal curve). In a few lines: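 HEK293 clonal line overexpressing APOL1 G1; EC50 is half-maximal reversal of APOL1-induced cell death. Values are the geometric mean of ≥2 runs on separate days, each run the average of duplicate wells. Where no sigmoidal curve could be fitted, the concentration giving 50% rescue was estimated.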

Another assay concerns the target T1, APOL1 G2 (Homo sapiens, UniProt O14791, DEL388-389).
T1 construct: expressed in transfected cells; host or cells: HEK293 T-REx clonal line stably expressing GCaMP6f (HEK T-REx/GCaMP6f/APOL1 G2 K6.3), doxycycline induced
T1 sequence (O14791 with tags, fused parts or gaps DEL388-389): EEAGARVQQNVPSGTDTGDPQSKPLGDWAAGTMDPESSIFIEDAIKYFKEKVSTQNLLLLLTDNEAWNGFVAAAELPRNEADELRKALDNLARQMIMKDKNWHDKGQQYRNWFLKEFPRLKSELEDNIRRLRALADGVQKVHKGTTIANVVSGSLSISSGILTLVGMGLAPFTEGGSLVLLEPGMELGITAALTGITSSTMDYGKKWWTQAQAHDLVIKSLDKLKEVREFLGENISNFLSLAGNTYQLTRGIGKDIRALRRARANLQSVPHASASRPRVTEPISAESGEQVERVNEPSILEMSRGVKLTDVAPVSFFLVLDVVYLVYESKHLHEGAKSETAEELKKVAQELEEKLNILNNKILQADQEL
Briefly: APOL1-mediated calcium transport (calcium influx) assay, HEK T-REx/GCaMP6f/APOL1 G2 K6.3 cells, FLIPR TETRA. The settings on record: prevention of calcium influx; geometric mean of at least 2 assay runs; † = average of a technical replicate from a single assay run. In a few lines:
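A HEK293 T-REx clone stably expressing GCaMP6f had APOL1 G2 induced with doxycycline (20 ng/mL solution added) for 6 h. Cells were then washed into Ca2+-free Tyrode's buffer (pH 7.4) and preincubated with compounds (duplicate 8-point) for 10 min at room temperature. Ca2+ injection to 5 mM final produced FLIPR GCaMP fluorescence, giving AC50 for influx inhibition (geometric mean, ≥2 runs).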

Usually EC50 stands for the concentration needed to bring the measured effect to its halfway point. Broadly, the AC50 is the concentration giving half of the maximal activity seen.

As for `CS(=O)(=O)c1ccc(OCCN2CCC3(CC2)C(=O)N(CCO)c2ccc(C#N)cc23)cc1C(F)(F)F` [Compound 159, 1-(2-hydroxyethyl)-1′-{2-[4-methanesulfonyl-3-(trifluoromethyl)phenoxy]ethyl}-2-oxo-1,2-dihydrospiro[indole-3,4′-piperidine]-5-carbonitrile], the results for the EC50 in assay [1] and in assay [2] were 168 nM and 588 nM, respectively. The AC50 on APOL1 G2 turned out to be 1010 nM.

Consider `N#Cc1ccc2c(c1)C1(CCN(CCOc3ccc4c(c3)CNC4=O)CC1)C(=O)N2` [Compound 170, 2-oxo-1′-{2-[(1-oxo-2,3-dihydro-1H-isoindol-5-yl)oxy]ethyl}-1,2-dihydrospiro[indole-3,4′-piperidine]-5-carbonitrile], for which the EC50 in assay [1] was 803 nM; in assay [2], around 2300 nM. In addition, on APOL1 G2, the AC50 is 1310 nM.

With `O=C1NCc2cc(OCCN3CCC4(CC3)C(=O)Nc3ccc(Cl)cc34)ccc21` [Compound 171, 5-chloro-1′-{2-[(1-oxo-2,3-dihydro-1H-isoindol-5-yl)oxy]ethyl}-1,2-dihydrospiro[indole-3,4′-piperidin]-2-one], the figures for the EC50 in assay [1] and in assay [2] were 100 nM and 228 nM, respectively. Also, on APOL1 G2, the AC50 was determined as 598 nM.

For `CC1(Oc2ncc(OCCN3CCC4(CC3)C(=O)Nc3ccc(C#N)cc34)cn2)COC1` [Compound 173, 1′-[2-({2-[(3-methyloxetan-3-yl)oxy]pyrimidin-5-yl}oxy)ethyl]-2-oxo-1,2-dihydrospiro[indole-3,4′-piperidine]-5-carbonitrile], the EC50 is 289 nM in assay [1] and 1160 nM in assay [2]. Further, the AC50 at APOL1 G2 was 908 nM.

For `O=C1Nc2ccc(Cl)cc2C12CCN(CCOc1ccc(C3CCCS3(=O)=O)cc1)CC2` (stereo not drawn) [Compound 175, 2-[4-(2-{5-chloro-2-oxo-1,2-dihydrospiro[indole-3,4′-piperidin]-1′-yl}ethoxy)phenyl]-1λ^6-thiolane-1,1-dione], the EC50 in assay [1] is 63.1 nM; in assay [2], 153 nM. Moreover, the AC50 on APOL1 G2 came out at 381 nM.

With `N#Cc1ccc2c(c1)C1(CCN(CCOc3ccc(C4CCCS4(=O)=O)cc3)CC1)C(=O)N2` (stereo not drawn) [Compound 178, 1′-{2-[4-(1,1-dioxo-1λ^6-thiolan-2-yl)phenoxy]ethyl}-2-oxo-1,2-dihydrospiro[indole-3,4′-piperidine]-5-carbonitrile], the EC50 in assay [1] is 256 nM; in assay [2], 1190 nM. Besides, the AC50 on APOL1 G2 was 550 nM.

As for `O=C1OC2(COC2)c2ccc(OCCN3CCC4(CC3)C(=O)Nc3ccc(Cl)cc34)cc21` [Compound 179, 5-chloro-1′-(2-{3-oxo-3H-spiro[2-benzofuran-1,3′-oxetan]-5-yloxy}ethyl)-1,2-dihydrospiro[indole-3,4′-piperidin]-2-one], the EC50 was 164 nM in assay [1] and 484 nM in assay [2]. Moreover, the AC50 on APOL1 G2 is 655 nM.

Turning to `CS(=O)(=O)C1(c2ccc(OCCN3CCC4(CC3)C(=O)Nc3ccc(C#N)cc34)cc2)CC2(COC2)C1` [Compound 183, 1′-[2-(4-{6-methanesulfonyl-2-oxaspiro[3.3]heptan-6-yl}phenoxy)ethyl]-2-oxo-1,2-dihydrospiro[indole-3,4′-piperidine]-5-carbonitrile], the EC50 in assay [1] was 702 nM; in assay [2], around 5800 nM. Moreover, the AC50 on APOL1 G2 worked out at 1520 nM.

Consider `CS(=O)(=O)Nc1ccc(OCCN2CCC3(CC2)C(=O)N(CCO)c2ccc(Cl)cc23)cc1C(F)(F)F` [Compound 186, N-(4-{2-[5-chloro-1-(2-hydroxyethyl)-2-oxo-1,2-dihydrospiro[indole-3,4′-piperidin]-1′-yl]ethoxy}-2-(trifluoromethyl)phenyl)methanesulfonamide], for which the figures for the EC50 in assay [1] and in assay [2] were 35.9 nM and 98.8 nM, respectively. Also, the AC50 on APOL1 G2 was 524 nM.

For `CS(=O)(=O)C1(c2ccc(OCCN3CCC4(CC3)C(=O)Nc3ccc(C#N)cc34)cc2)CCOCC1` [Compound 187, 1′-{2-[4-(4-methanesulfonyloxan-4-yl)phenoxy]ethyl}-2-oxo-1,2-dihydrospiro[indole-3,4′-piperidine]-5-carbonitrile], the EC50 is 268 nM in assay [1] and 1260 nM in assay [2]. In addition, the AC50 at APOL1 G2 was determined as 1220 nM.

As for `CC(=O)N1CCc2cc(OCCN3CCC4(CC3)C(=O)Nc3ccc(Cl)cc34)ccc2C1` [Compound 194, 1′-{2-[(2-acetyl-1,2,3,4-tetrahydroisoquinolin-6-yl)oxy]ethyl}-5-chloro-1,2-dihydrospiro[indole-3,4′-piperidin]-2-one], the EC50 is 246 nM in assay [1] and 414 nM in assay [2]. At APOL1 G2, the AC50 stood at 600 nM.

Regarding `CC(COc1ccc2c(c1)CCC(=O)N2C)N1CCC2(CC1)C(=O)Nc1ccc(Cl)cc12` (stereo not drawn) [Compound 199, 5-chloro-1′-{1-[(1-methyl-2-oxo-1,2,3,4-tetrahydroquinolin-6-yl)oxy]propan-2-yl}-1,2-dihydrospiro[indole-3,4′-piperidin]-2-one], the EC50 in assay [1] was 148 nM; in assay [2] it was 312 nM. For the same molecule, the AC50 at APOL1 G2 was found to be 1130 nM.

Turning to `CC(COc1ccc2c(c1)CCC(=O)N2C)N1CCC2(CC1)C(=O)Nc1ccc(C#N)cc12` (stereo not drawn) [Compound 202, 1′-{1-[(1-methyl-2-oxo-1,2,3,4-tetrahydroquinolin-6-yl)oxy]propan-2-yl}-2-oxo-1,2-dihydrospiro[indole-3,4′-piperidine]-5-carbonitrile], the results for the 50% effective concentration (EC50) in assay [1] and in assay [2] were 315 nM and 2550 nM, respectively. Moreover, the half-maximal activity concentration (AC50) at APOL1 G2 stood at 1720 nM.

For the molecule `CS(=O)(=O)c1ccc(OCCN2CCC3(CC2)C(=O)Nc2ccc(Cl)cc23)cc1C(F)CF` (stereo not drawn) [Compound 217, 5-chloro-1′-{2-[3-(1,2-difluoroethyl)-4-methanesulfonylphenoxy]ethyl}-1,2-dihydrospiro[indole-3,4′-piperidin]-2-one], the results for the EC50 in assay [1] and in assay [2] were 32.6 nM and 108 nM, respectively. In addition, on APOL1 G2, the AC50 is 866 nM.

For `CS(=O)(=O)c1ccc(OCCN2CCC3(CC2)C(=O)Nc2ccc(C#N)cc23)cc1C(F)CF` (stereo not drawn) [Compound 220, 1′-{2-[3-(1,2-difluoroethyl)-4-methanesulfonyl-phenoxy]ethyl}-2-oxo-1,2-dihydrospiro [indole-3,4′-piperidine]-5-carbonitrile], the results for the EC50 in assay [1] and in assay [2] were 53 nM and 301 nM, respectively. For the same molecule, the AC50 on APOL1 G2 came out at 679 nM.

For `CS(=O)(=O)c1ccc(OCCN2CCC3(CC2)C(=O)Nc2ccc(Cl)cc23)cc1C1COC1` [Compound 223, 5-chloro-1′-{2-[4-methanesulfonyl-3-(oxetan-3-yl)phenoxy]ethyl}-1,2-dihydrospiro[indole-3,4′-piperidin]-2-one], the EC50 was 97.8 nM in assay [1] and 326 nM in assay [2]. The AC50 on APOL1 G2 is 311 nM.

Take `CNC(=O)N1CCc2cc(OCCN3CCC4(CC3)C(=O)Nc3ccc(C#N)cc34)ccc2C1` [Compound 246, 6-(2-{5-cyano-2-oxo-1,2-dihydrospiro[indole-3,4′-piperidin]-1′-yl}ethoxy)-N-methyl-1,2,3,4-tetrahydroisoquinoline-2-carboxamide]: the EC50 in assay [1] is 562 nM; in assay [2] it was 4860 nM. In addition, on APOL1 G2, the AC50 amounted to 1340 nM.

Consider `N#Cc1ccc2c(c1)C1(CCN(CCOc3ccc(C4(C(=O)N5CC(F)C5)COC4)cc3)CC1)C(=O)N2` [Compound 252, 1′-(2-{4-[3-(3-fluoroazetidine-1-carbonyl)oxetan-3-yl]phenoxy}ethyl)-2-oxo-1,2-dihydrospiro[indole-3,4′-piperidine]-5-carbonitrile], for which the results for the EC50 in assay [1] and in assay [2] were 471 nM and around 1800 nM, respectively. The AC50 on APOL1 G2 was 1350 nM.
